ChEMBL document CHEMBL1201862, “PubChem BioAssay data set” (2004)
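96-well plates; 48 h exposure; 5 concentrations. Endpoints by linear interpolation between flanking doses. Not reached: highest tested concentration assigned. GI50: concentration for 50% inhibition of growth.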 Activity calls are given as the source filed them. Cut-off read from the data, not from the text of the source: active = GI50 up to about 1.1 µM and inactive = higher.

Columns and labels:
Experiment in all cases: growth of human tumour cells (NCI), 48 h
HCC 2998 = system: HCC 2998
NCI-H226 = system: NCI-H226
HT-29 = system: HT-29
U-251 = system: U-251
NCI-H23 = system: NCI-H23
IGROV-1 = system: IGROV-1
UACC-62 = system: UACC-62
HCT-116 = system: HCT-116
HCT-15 = system: HCT-15
CCRF-CEM = system: CCRF-CEM
RXF 393 = system: RXF 393
SF-295 = system: SF-295
KM12 = system: KM12
NCI-H522 = system: NCI-H522
HL-60 = system: HL-60
M14 = system: M14
A498 = system: A498
OVCAR-5 = system: OVCAR-5
T47D = system: T47D
Hs-578T = system: Hs-578T

SMILES | GI50 (HCC 2998) | GI50 (NCI-H226) | GI50 (HT-29) | GI50 (U-251) | GI50 (NCI-H23) | GI50 (IGROV-1) | GI50 (UACC-62) | GI50 (HCT-116) | GI50 (HCT-15) [µM] | GI50 (CCRF-CEM) | GI50 (RXF 393) | GI50 (SF-295) | GI50 (KM12) | GI50 (NCI-H522) | GI50 (HL-60) | GI50 (M14) | GI50 (A498) | GI50 (OVCAR-5) | GI50 (T47D) | GI50 (Hs-578T)
Nc1ccn(C2OC(CO)C(O)C2O)c(=O)c1 (centres undefined) | 63.2 µM (inactive) | > 625 µM (inactive) | 270 µM (inactive) | > 625 µM (inactive) | > 625 µM (inactive) | > 625 µM (inactive) | 337 µM (inactive) | 125 µM (inactive) | > 625 | > 625 µM (inactive) | 348 µM (inactive) | > 625 µM (inactive) | > 625 µM (inactive) | > 625 µM (inactive) | 239 µM (inactive) | – | – | – | – | –
O=C(O)C(Br)Cc1ccc2c(c1)OCO2 (centres undefined) | > 100 µM (inactive) | – | > 100 µM (inactive) | > 100 µM (inactive) | > 100 µM (inactive) | > 100 µM (inactive) | 62.1 µM (inactive) | > 100 µM (inactive) | > 100 | > 100 µM (inactive) | 71.9 µM (inactive) | 55.5 µM (inactive) | > 100 µM (inactive) | > 100 µM (inactive) | > 100 µM (inactive) | > 100 µM (inactive) | 47.2 µM (inactive) | > 100 µM (inactive) | – | –
C/C(N)=N/OCc1nc(C)no1 | > 100 µM (inactive) | – | > 100 µM (inactive) | > 100 µM (inactive) | > 100 µM (inactive) | – | > 100 µM (inactive) | > 100 µM (inactive) | > 100 | > 100 µM (inactive) | > 100 µM (inactive) | > 100 µM (inactive) | > 100 µM (inactive) | > 100 µM (inactive) | > 100 µM (inactive) | > 100 µM (inactive) | – | – | > 100 µM (inactive) | > 100 µM (inactive)
COc1ccc(-c2c3c(nc4[nH]c(=S)[nH]c(=S)c24)CCCC3)cc1OC | – | – | 22.1 µM (inactive) | 18.4 µM (inactive) | 29.3 µM (inactive) | 29.9 µM (inactive) | 19.6 µM (inactive) | 29.4 µM (inactive) | 30.1 | 28.5 µM (inactive) | 11.9 µM (inactive) | 14.7 µM (inactive) | 30.9 µM (inactive) | – | 24.7 µM (inactive) | 28.6 µM (inactive) | – | 28.8 µM (inactive) | 25.9 µM (inactive) | 13.3 µM (inactive)
O=C(O)c1c[nH]c2c(=O)[nH]cnc12 | > 100 µM (inactive) | – | > 100 µM (inactive) | – | > 100 µM (inactive) | > 100 µM (inactive) | > 100 µM (inactive) | > 100 µM (inactive) | > 100 | > 100 µM (inactive) | > 100 µM (inactive) | > 100 µM (inactive) | > 100 µM (inactive) | > 100 µM (inactive) | > 100 µM (inactive) | > 100 µM (inactive) | – | > 100 µM (inactive) | – | –
COc1ccc(C(=C2C=CC=C2)c2ccc(OC)cc2)cc1 | 19.3 µM (inactive) | 50.5 µM (inactive) | 24 µM (inactive) | 27.7 µM (inactive) | 34.2 µM (inactive) | 52 µM (inactive) | 33.7 µM (inactive) | 26.4 µM (inactive) | 25.5 | 21.9 µM (inactive) | 25.2 µM (inactive) | 16.9 µM (inactive) | 45.9 µM (inactive) | 19.3 µM (inactive) | 36.4 µM (inactive) | 61.1 µM (inactive) | – | 32.3 µM (inactive) | 24.2 µM (inactive) | 33.6 µM (inactive)
BrC(/C=N/Nc1nnc(-c2ccccc2)c(-c2ccccc2)n1)C(Br)c1ccccc1 (centres undefined) | 30.3 µM (inactive) | 20.4 µM (inactive) | 34 µM (inactive) | 28.2 µM (inactive) | 22.2 µM (inactive) | 41.7 µM (inactive) | 18.6 µM (inactive) | – | 28.7 | 24.9 µM (inactive) | 25.1 µM (inactive) | 30.5 µM (inactive) | 32.9 µM (inactive) | 14.5 µM (inactive) | 22.4 µM (inactive) | 21.6 µM (inactive) | 40.2 µM (inactive) | 51.5 µM (inactive) | – | –
COc1c2c(c3ccccc3c1O)C1C=CC2C1 (centres undefined) | 16.1 µM (inactive) | > 10 µM (inactive) | 19.7 µM (inactive) | 11.7 µM (inactive) | 14.6 µM (inactive) | 20.8 µM (inactive) | 15.4 µM (inactive) | 4 µM (inactive) | 10 | 4.72 µM (inactive) | 15.5 µM (inactive) | – | 17.6 µM (inactive) | 14.9 µM (inactive) | > 10 µM (inactive) | 14.7 µM (inactive) | – | 18.7 µM (inactive) | – | –
CCOC(=O)C1=C(C)N(c2ccc(Cl)cc2)C2(O)C=CC(Nc3ccc(Cl)cc3)=C3C(=O)N(c4ccccc4)C(=O)C312 (centres undefined) | – | – | 3.66 µM (inactive) | 4.85 µM (inactive) | 5.42 µM (inactive) | 5.36 µM (inactive) | 1.44 µM (inactive) | – | 3.45 | 1.64 µM (inactive) | – | 3.18 µM (inactive) | 4.34 µM (inactive) | 1.34 µM (inactive) | 2.97 µM (inactive) | 3.13 µM (inactive) | 1.83 µM (inactive) | 3.96 µM (inactive) | 3.84 µM (inactive) | 5.51 µM (inactive)
C[C@H](N)C(=O)N[C@@H]1[C@H]2C(=C(O)C[C@@H](O)[C@@H]2O)C(=O)O[C@@H]1C | > 100 µM (inactive) | > 100 µM (inactive) | > 100 µM (inactive) | > 100 µM (inactive) | > 100 µM (inactive) | > 100 µM (inactive) | > 100 µM (inactive) | > 100 µM (inactive) | > 100 | > 53.8 µM (inactive) | > 100 µM (inactive) | > 100 µM (inactive) | > 100 µM (inactive) | > 100 µM (inactive) | > 80.4 µM (inactive) | – | > 100 µM (inactive) | > 100 µM (inactive) | – | –
Oc1[nH]c(Nc2cccc(Br)c2)nc2ncnc1-2 | > 100 µM (inactive) | > 100 µM (inactive) | 82.6 µM (inactive) | – | > 100 µM (inactive) | > 100 µM (inactive) | > 100 µM (inactive) | 53.8 µM (inactive) | > 100 | 54.7 µM (inactive) | > 100 µM (inactive) | > 100 µM (inactive) | > 100 µM (inactive) | > 100 µM (inactive) | 11.6 µM (inactive) | > 100 µM (inactive) | – | > 100 µM (inactive) | 98.4 µM (inactive) | 55.3 µM (inactive)
COc1cc(CNc2nc3c(NC(C)=O)cc(C(F)(F)F)cc3nc2-c2ccccc2)cc(OC)c1OC | > 100 µM (inactive) | > 100 µM (inactive) | – | – | – | > 100 µM (inactive) | 39.7 µM (inactive) | > 100 µM (inactive) | > 100 | > 100 µM (inactive) | 90.4 µM (inactive) | > 100 µM (inactive) | > 100 µM (inactive) | > 100 µM (inactive) | – | – | – | > 100 µM (inactive) | – | –
COC1=C(C)C(=O)C2=C(C1=O)[C@@H]1[C@@H]3Cc4c(OC(=O)CO)c(C)c(OC)c(O)c4[C@H](CNC(=O)C(C)=O)N3[C@@H](C#N)[C@H](C2)N1C | 0.0472 µM (active) | 0.0871 µM (active) | 0.0182 µM (active) | 0.029 µM (active) | < 0.011 µM (active) | 0.0177 µM (active) | < 0.0208 µM (active) | 0.0573 µM (active) | < 0.01 | 0.0271 µM (active) | 0.0184 µM (active) | 0.199 µM (active) | 0.108 µM (active) | < 0.01 µM (active) | < 0.0135 µM (active) | – | 0.0959 µM (active) | 0.098 µM (active) | – | –
COC1=CC(C2c3cc4c(cc3[C@@H](Nc3ccc([N+](=O)[O-])cc3)C3COC(=O)[C@H]23)OCO4)=CC(=O)C1=O (some centres undefined) | 2.63 µM (inactive) | 1.64 µM (inactive) | 7.21 µM (inactive) | 1.35 µM (inactive) | 1.64 µM (inactive) | 13 µM (inactive) | 2.18 µM (inactive) | 6.64 µM (inactive) | 3.27 | 1.06 µM (active) | 17.9 µM (inactive) | 2.09 µM (inactive) | 4.53 µM (inactive) | 2.58 µM (inactive) | 0.982 µM (active) | 3.29 µM (inactive) | 1.84 µM (inactive) | 5.53 µM (inactive) | – | –
C#CCNC(=O)CCC(N)C(=O)O (centres undefined) | > 100 µM (inactive) | > 100 µM (inactive) | > 100 µM (inactive) | > 100 µM (inactive) | > 100 µM (inactive) | > 100 µM (inactive) | > 100 µM (inactive) | > 100 µM (inactive) | > 100 | > 100 µM (inactive) | > 100 µM (inactive) | > 100 µM (inactive) | > 100 µM (inactive) | > 100 µM (inactive) | > 100 µM (inactive) | – | > 100 µM (inactive) | > 100 µM (inactive) | – | –
COc1ccc([C@@H]2ON(C)[C@H]3CN(C)C(=O)[C@@H]23)cc1 | > 100 µM (inactive) | > 100 µM (inactive) | > 100 µM (inactive) | > 100 µM (inactive) | > 100 µM (inactive) | > 100 µM (inactive) | – | > 100 µM (inactive) | > 100 | > 100 µM (inactive) | – | > 100 µM (inactive) | – | > 100 µM (inactive) | > 100 µM (inactive) | > 100 µM (inactive) | – | > 100 µM (inactive) | > 100 µM (inactive) | > 100 µM (inactive)
CC12CCC(C(=O)OC1=O)C(C)(C)O2 (centres undefined) | > 100 µM (inactive) | > 100 µM (inactive) | > 100 µM (inactive) | > 100 µM (inactive) | > 100 µM (inactive) | > 100 µM (inactive) | > 100 µM (inactive) | > 100 µM (inactive) | – | > 100 µM (inactive) | > 100 µM (inactive) | > 100 µM (inactive) | > 100 µM (inactive) | > 100 µM (inactive) | – | > 100 µM (inactive) | – | > 100 µM (inactive) | > 100 µM (inactive) | > 100 µM (inactive)
